Laboratory results: article PMC9776381, “A Large-Scale High-Throughput Screen for Modulators of SERCA Activity” (Biomolecules, 2022)
“Also recorded” adds a separate entry of the source.

What was measured:
[1] = target: T1, SERCA1a (rabbit light skeletal SR vesicles) (Oryctolagus cuniculus, UniProt P04191); test: NADH-coupled Ca-ATPase activity assay, skeletal SR (CRC at pCa 5.4); format: biochemical; details: n = 3; for Skeletal SR ATPase Activity Percent Increase: maximal effect of CRC 0.05 to 50 µM, pCa 5.4, relative to DMSO, mean ± SD; for EC50: pCa 5.4, mean ± SD
T1 construct: rabbit muscles were freshly harvested from the back and hind leg of New Zealand White rabbits and purified using a sucrose gradient; from tissue; host or cells: rabbit (New Zealand White) back and hind leg skeletal muscle, light SR vesicles
T1 sequence (P04191 1-994 isoform P04191-2): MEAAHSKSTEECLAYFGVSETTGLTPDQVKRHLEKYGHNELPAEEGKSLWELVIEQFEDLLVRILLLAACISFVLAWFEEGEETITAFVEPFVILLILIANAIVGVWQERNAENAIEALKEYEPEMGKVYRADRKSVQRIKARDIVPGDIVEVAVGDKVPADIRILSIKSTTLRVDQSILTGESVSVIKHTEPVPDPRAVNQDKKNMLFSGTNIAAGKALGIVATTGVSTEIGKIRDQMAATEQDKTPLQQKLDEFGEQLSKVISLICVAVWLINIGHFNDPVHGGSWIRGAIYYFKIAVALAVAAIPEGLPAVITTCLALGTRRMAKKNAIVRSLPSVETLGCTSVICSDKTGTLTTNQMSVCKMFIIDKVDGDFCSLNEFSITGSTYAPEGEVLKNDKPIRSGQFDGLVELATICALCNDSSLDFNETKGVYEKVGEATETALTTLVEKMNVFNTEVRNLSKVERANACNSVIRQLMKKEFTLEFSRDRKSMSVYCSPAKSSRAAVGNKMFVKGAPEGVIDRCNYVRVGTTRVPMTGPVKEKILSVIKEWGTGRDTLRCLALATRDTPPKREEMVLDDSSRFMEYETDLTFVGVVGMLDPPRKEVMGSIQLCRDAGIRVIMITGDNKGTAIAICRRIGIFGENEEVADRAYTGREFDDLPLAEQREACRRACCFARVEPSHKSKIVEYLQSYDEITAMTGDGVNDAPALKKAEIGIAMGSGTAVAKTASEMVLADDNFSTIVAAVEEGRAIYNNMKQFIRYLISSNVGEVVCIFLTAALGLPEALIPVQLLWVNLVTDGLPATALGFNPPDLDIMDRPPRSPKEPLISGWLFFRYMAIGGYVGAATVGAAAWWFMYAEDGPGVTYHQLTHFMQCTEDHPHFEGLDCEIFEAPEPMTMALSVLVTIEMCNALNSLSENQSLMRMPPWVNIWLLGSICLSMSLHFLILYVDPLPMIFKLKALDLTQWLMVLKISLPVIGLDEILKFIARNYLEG
Experimental: (§1) For skeletal SR, rabbit muscles were freshly harvested from the back and hind leg of New Zealand White rabbits and purified using a sucrose gradient. The resulting light skeletal SR contains 80% SERCA, as a proportion of total protein content. Cardiac SR vesicles were isolated from fresh porcine left ventricular tissue.
(§2) Functional assays were performed using rabbit light skeletal sarcoplasmic (SR) vesicles. For high-throughput NADH-coupled screening, assay mix containing a final concentration of 50 mM MOPS (pH 7.0), 100 mM KCl, 1 mM EGTA, 0.2 mM NADH, 1 mM phosphoenol pyruvate, 10 IU/mL of pyruvate kinase, 10 IU/mL of lactate dehydrogenase, 1 µM of the calcium ionophore A23187, 4 µg/mL skeletal SR, and added CaCl2 to obtain pCa 5.4 was dispensed into 384-well DIVERSet assay plates containing 50 nL of compound or DMSO using a FlexDrop Precision liquid dispenser (Perkin Elmer, Waltham, Massachusetts). Plates were sealed, covered from light, and incubated at room temperature for 20 min. The assay was then started by dispensing MgATP (termed “initiation mix”), to a final concentration of 5 mM in each well (80 µL total assay volume) with the FlexDrop liquid dispenser (Perkin Elmer). The time dependence of absorbance was measured at 340 nm in a SpectraMax Plus384 microplate spectrophotometer (Molecular Devices, Sunnyvale, CA). For follow-up concentration response curves of Hit compounds, 400 nL of either compound or DMSO was dispensed into each well using an Echo liquid dispenser (Beckman Coulter). Testing dose-dependent compound effects on rabbit skeletal SR vesicles was done using the same method, as described above in 384-well plates. Determining compound effects on cardiac SR vesicles was done in a similar method as above, with the exception of 10 µg/mL of cardiac SR incubated in assay mix consisting of a final concentration of 50 mM MOPS (pH 7.0), 100 mM KCl, 1 mM EGTA, 1 µM of the calcium ionophore A23187, and added CaCl2 to the desired free calcium values. After a 20 min incubation, the “initiation mix”, containing a final concentration of 0.2 mM NADH, 1 mM phosphoenol pyruvate, 10 IU/mL of pyruvate kinase, 10 IU/mL of lactate dehydrogenase, and 5mM MgATP, was dispensed into each well.
The initial screen assay was performed with compounds at 10 µM. To better study the selected Hit compounds for their activation potential, we performed ATPase analyses (in triplicate) over a range of Hit concentrations (0.05 to 50 µM), generating concentration-response curves (CRCs) to determine maximal effects and EC50 (Figure 2). We used the same Ca^2+ concentration (pCa 5.4) as in the screening assays, thus focusing on the effects on the maximal velocity of SERCA. Two of the selected Hits yielded no response in follow-up assays, probably due to a mismatch in chemical composition between the library compound and the subsequently ordered compound (DS95401435 and DS41547941). This type of discrepancy is a typical hurdle in the screening process. Each of the other 19 compounds produced a substantial increase in ATPase activity, ranging from 30% to 72% (Table 1 and Supporting Information, Figure S1), as expected due to similarity of the CRC assay to the initial screen.

[2] = target: T2, SERCA1a (skeletal SR vesicles) (Oryctolagus cuniculus, UniProt P04191); test: Oxalate-supported Ca2+-uptake assay, skeletal SR (CRC at pCa 5.4); format: biochemical, rabbit; details: for Skeletal SR Ca^2+ Uptake Activity Percent Increase: maximal effect of CRC; for Skeletal SR Ca^2+ Uptake Activity Percent Increase / EC50: pCa 5.4, mean ± SD, dash = no observable effect; for EC50: read-out: Skeletal SR Ca^2+ Uptake Activity EC50; for Effect on Ca^2+ uptake activity in skeletal SR (in words): pCa 5.4; for Ca^2+ uptake effect (in words), SR type not given: uncoupling compounds, cluster 5, tissue not stated
T2 construct: rabbit muscles were freshly harvested from the back and hind leg of New Zealand White rabbits and purified using a sucrose gradient; from tissue; host or cells: rabbit (New Zealand White) back and hind leg skeletal muscle, light SR vesicles
T2 sequence (P04191 1-994 isoform P04191-2): as above
Experimental: as §1
(§3) To determine compound effect on the Ca^2+-uptake activity of SERCA1a and SERCA2a, we used an oxalate-supported assay. A solution containing 50 mM MOPS (pH 7.0), 100 mM KCl, 30 mg/mL sucrose, 1 mM EGTA, 10 mM potassium oxalate, 2 µM Fluo-4, 30 µg/mL cardiac SR vesicles or 12 μg/mL skeletal SR vesicles, and CaCl2 calculated to reach the desired free [Ca^2+] was dispensed into 384-well black walled, transparent bottomed plates (Greiner Bio-One) containing the tested small molecule and incubated at 21 °C for 20 min while covered and protected from light. To start the reaction, MgATP was added to a final concentration of 5 mM, and the decrease in 485-nm excited fluorescence was monitored at 520 nm for 15 min using a FLIPR Tetra (Molecular Devices, San Jose, CA, USA).
While Ca^2+-dependent ATPase activity is a direct measure of SERCA activity, coupling of ATP hydrolysis to transport of Ca^2+ across the SR membrane is essential for the role of SERCA in cellular physiology. Therefore, we next asked whether our ATPase-based HTS assay could successfully identify compounds that also increase Ca^2+ uptake of SERCA.

[3] = target: T3, SERCA2a (cardiac SR vesicles) (Sus scrofa, UniProt P11607); test: NADH-coupled Ca-ATPase activity assay, cardiac SR (CRC at pCa 5.4); format: biochemical, porcine; details: pCa 5.4, mean ± SD, n = 3; for Cardiac SR ATPase Activity Percent Increase: maximal effect of CRC
T3 construct: Cardiac SR vesicles were isolated from fresh porcine left ventricular tissue; from tissue; host or cells: porcine left ventricular tissue, cardiac SR vesicles
T3 sequence (P11607 1-997 isoform P11607-2): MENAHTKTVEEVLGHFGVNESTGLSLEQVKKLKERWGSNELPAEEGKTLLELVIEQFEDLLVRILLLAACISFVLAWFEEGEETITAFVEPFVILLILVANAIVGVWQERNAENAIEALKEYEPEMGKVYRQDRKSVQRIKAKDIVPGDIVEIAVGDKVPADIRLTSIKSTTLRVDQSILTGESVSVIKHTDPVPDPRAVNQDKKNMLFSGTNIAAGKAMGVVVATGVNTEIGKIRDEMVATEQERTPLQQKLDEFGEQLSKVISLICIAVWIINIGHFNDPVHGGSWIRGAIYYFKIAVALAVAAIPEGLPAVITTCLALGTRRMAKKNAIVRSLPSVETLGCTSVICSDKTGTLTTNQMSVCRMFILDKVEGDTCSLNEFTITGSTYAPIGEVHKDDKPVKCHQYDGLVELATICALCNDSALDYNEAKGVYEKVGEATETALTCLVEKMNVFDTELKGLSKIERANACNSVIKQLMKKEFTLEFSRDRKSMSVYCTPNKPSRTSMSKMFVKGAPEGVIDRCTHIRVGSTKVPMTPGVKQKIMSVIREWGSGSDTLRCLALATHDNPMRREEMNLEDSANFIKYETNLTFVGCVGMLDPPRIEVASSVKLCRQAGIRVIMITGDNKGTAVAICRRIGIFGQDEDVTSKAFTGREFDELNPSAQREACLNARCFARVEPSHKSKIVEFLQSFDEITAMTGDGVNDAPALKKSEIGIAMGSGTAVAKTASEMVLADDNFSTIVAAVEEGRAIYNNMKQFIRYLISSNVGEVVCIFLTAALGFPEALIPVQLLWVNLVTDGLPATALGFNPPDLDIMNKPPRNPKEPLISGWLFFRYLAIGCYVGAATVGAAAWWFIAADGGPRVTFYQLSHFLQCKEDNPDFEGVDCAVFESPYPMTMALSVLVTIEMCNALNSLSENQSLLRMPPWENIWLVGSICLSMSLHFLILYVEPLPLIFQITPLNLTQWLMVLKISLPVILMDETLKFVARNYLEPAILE
Experimental: as §1, §2
While initial screening was performed in skeletal SR enriched with the SERCA1a isoform, high sequence and structural homology with the cardiac SERCA2a isoform predicts a potential for cross reactivity of the Hit compounds. To test this hypothesis, we performed ATPase analyses with cardiac SR microsomes, which are enriched for SERCA2a.

[4] = target: T3, SERCA2a (cardiac SR vesicles); test: Oxalate-supported Ca2+-uptake assay, cardiac SR (CRC at pCa 5.4); format: biochemical, porcine; details: for Cardiac SR Ca^2+ Uptake Activity Percent Increase: maximal effect of CRC; for Cardiac SR Ca^2+ Uptake Activity Percent Increase / EC50: pCa 5.4, mean ± SD, dash = no observable effect; for Cardiac SR Ca^2+ Uptake Activity Percent Increase / EC50 / Compound classification from ATPase vs. Ca^2+ uptake CRCs, cardiac SR: n = 3; for EC50: read-out: Cardiac SR Ca^2+ Uptake Activity EC50; for Effect on Ca^2+ uptake activity in cardiac SR (in words): pCa 5.4
Experimental: as §1, §3
To determine whether the observed increases in SERCA2a ATPase activity translate to Ca^2+ uptake function, we applied our Ca^2+ transport assay to test our selected Hit compounds in cardiac SR (Table 1). Indeed, 16 of the 19 compounds yielded a clear increase in Ca^2+ uptake activity. In fact, eight compounds generated an increase at least 50% greater in cardiac SR than in skeletal SR. Three compounds had either an inhibitory or no effect on Ca^2+ transport, and two of these were also non-activating compounds in skeletal SR.

Structure (SMILES): Cc1ccsc1CN(C)C(=O)CC(c1ccccc1)c1ccc2c(c1)OCO2 (stereo not shown) [Compound 11]
- Skeletal SR ATPase Activity Percent Increase [1]: 61 ± 2%
- EC50 [1]: 7.2 ± 0.4 µM
- Skeletal SR Ca^2+ Uptake Activity Percent Increase ([2]; n = 3): 9.1 ± 0.8%
- EC50 ([2]; n = 3): 1.2 ± 0.3 µM
- Cardiac SR ATPase Activity Percent Increase [3]: 62 ± 2%
- EC50 [3]: 6.4 ± 0.4 µM
- Cardiac SR Ca^2+ Uptake Activity Percent Increase [4]: 18 ± 2%
- EC50 [4]: 1.2 ± 0.4 µM

Structure (SMILES): Fc1ccc(N2CCCN(Cc3nc(C(c4ccccc4)c4ccccc4)no3)CC2)cc1 [Compound 12]
- Skeletal SR ATPase Activity Percent Increase [1]: 41 ± 2%
- EC50 [1]: 3.4 ± 0.4 µM
- Skeletal SR Ca^2+ Uptake Activity Percent Increase ([2]; n = 3): 6.5 ± 0.5%
- EC50 ([2]; n = 3): 0.6 ± 0.2 µM
- Effect on Ca^2+ uptake activity in skeletal SR (in words) ([2]; skeletal SR): significant activation; also recorded: small but significant increase
- Cardiac SR ATPase Activity Percent Increase [3]: 29 ± 1%
- EC50 [3]: 2.3 ± 0.3 µM
- Compound classification from ATPase vs. Ca^2+ uptake CRCs, cardiac SR [4]: Isoform-specific uncoupler
- Effect on Ca^2+ uptake activity in cardiac SR (in words) [4]: strong uncoupling effect; also recorded: inhibition of Ca^2+ uptake activity
- Cardiac SR Ca^2+ Uptake Activity Percent Increase [4]: −10 ± 3%
- EC50 [4]: 1.3 ± 0.1 µM

Structure (SMILES): CN(Cc1ccccc1)c1ncccc1CNc1ncccc1Cl [Compound 13]
- Skeletal SR ATPase Activity Percent Increase [1]: 36 ± 4%
- EC50 [1]: 3.2 ± 0.6 µM
- Skeletal SR Ca^2+ Uptake Activity Percent Increase ([2]; n = 3): 8 ± 2%
- EC50 ([2]; n = 3): 1.1 ± 0.6 µM
- Cardiac SR ATPase Activity Percent Increase [3]: 36 ± 4%
- EC50 [3]: 2.9 ± 0.6 µM
- Increase in Ca^2+ uptake in cardiac SR vs. skeletal [4]: greater than 2 fold
- Cardiac SR Ca^2+ Uptake Activity Percent Increase [4]: 21 ± 10%
- EC50 [4]: 1.8 ± 2 µM

Structure (SMILES): COc1ccccc1CNc1nc(C(C)(C)C)nc2c1cnn2C [Compound 14]
- Skeletal SR ATPase Activity Percent Increase [1]: 25 ± 3%
- EC50 [1]: 3.3 ± 0.6 µM
- Skeletal SR Ca^2+ Uptake Activity Percent Increase ([2]; n = 3): 8 ± 2%
- Cardiac SR ATPase Activity Percent Increase [3]: 56 ± 3%
- EC50 [3]: 5.2 ± 0.5 µM
- Increase in Ca^2+ uptake in cardiac SR vs. skeletal [4]: greater than 2 fold
- Cardiac SR Ca^2+ Uptake Activity Percent Increase [4]: 28 ± 5%
- EC50 [4]: 2.5 ± 0.9 µM

Structure (SMILES): C=C(C)COc1cccc(C(=O)NCCn2cccn2)c1 [Compound 15]
- Skeletal SR ATPase Activity Percent Increase [1]: 30 ± 1%
- EC50 [1]: 30 ± 12 µM
- Ca^2+ uptake effect (in words), SR type not given [2]: little to no Ca^2+ uptake effect
- Cardiac SR ATPase Activity Percent Increase [3]: 46 ± 6%
- EC50 [3]: 16 ± 3 µM
- Cardiac SR Ca^2+ Uptake Activity Percent Increase [4]: 6 ± 5%
- EC50 [4]: 5 ± 11 µM

Structure (SMILES): COc1ccc(CCNC(=O)c2oc3c(Cl)cc(C)cc3c2C)cc1 [Compound 16]
- Skeletal SR ATPase Activity Percent Increase [1]: 25 ± 1%
- EC50 [1]: 3 ± 0.3 µM
- Skeletal SR Ca^2+ Uptake Activity Percent Increase ([2]; n = 3): −10 ± 2%
- EC50 ([2]; n = 3): 7 ± 13 µM
- Compound classification from ATPase vs. Ca^2+ uptake CRCs, skeletal SR ([2]; skeletal SR, n = 3): Uncoupling Compounds
- Effect on Ca^2+ uptake activity in skeletal SR (in words) ([2]; skeletal SR): inhibition of Ca^2+ uptake activity; also recorded: inhibitor of Ca^2+ uptake
- Effect on Ca^2+ uptake activity in skeletal SR (in words) ([2]; skeletal SR, listed as DS33804556): inhibitory
- Ca^2+ uptake effect (in words), SR type not given [2]: sizeable inhibitor effect
- Cardiac SR ATPase Activity Percent Increase [3]: 26 ± 2%
- EC50 [3]: 2.2 ± 0.4 µM
- Compound classification from ATPase vs. Ca^2+ uptake CRCs, cardiac SR [4]: Uncoupling Compounds
- Effect on Ca^2+ uptake activity in cardiac SR (in words) [4]: inhibition of Ca^2+ uptake activity; also recorded: inhibitor of Ca^2+ uptake
- Cardiac SR Ca^2+ Uptake Activity Percent Increase [4]: −27 ± 3%
- EC50 [4]: 8.9 ± 2 µM

Structure (SMILES): COc1cccc(-c2nn(-c3ccccc3)cc2CN(Cc2c(C)nn(C)c2C)C2CC2)c1 [Compound 18]
- Skeletal SR ATPase Activity Percent Increase [1]: 39 ± 1%
- EC50 [1]: 5.2 ± 0.3 µM
- Skeletal SR Ca^2+ Uptake Activity Percent Increase ([2]; n = 3): 8.9 ± 0.1%
- EC50 ([2]; n = 3): 1.1 ± 0.3 µM
- Cardiac SR ATPase Activity Percent Increase [3]: 37 ± 1%
- EC50 [3]: 4.3 ± 0.3 µM
- Cardiac SR Ca^2+ Uptake Activity Percent Increase [4]: 12 ± 1%
- EC50 [4]: 0.9 ± 0.2 µM

Structure (SMILES): OCc1ccccc1-c1ccc(-c2nc(CCc3ccccc3)no2)cn1 [Compound 19]
- Skeletal SR ATPase Activity Percent Increase [1]: 42 ± 2%
- EC50 [1]: 7.3 ± 0.8 µM
- Skeletal SR Ca^2+ Uptake Activity Percent Increase ([2]; n = 3): 7.2 ± 0.1%
- EC50 ([2]; n = 3): 1.8 ± 0.7 µM
- Cardiac SR ATPase Activity Percent Increase [3]: 22 ± 2%
- EC50 [3]: 6.3 ± 0.4 µM
- Cardiac SR Ca^2+ Uptake Activity Percent Increase [4]: 8 ± 1%
- EC50 [4]: 2.4 ± 0.6 µM
